Measured values taken from patent US20080039442A1, “Compounds With Kv4 Ion Channel Activity” (Devgen NV, priority 2004, published 2008).
Where two headings read alike, the source gives them in different places.

Experiments:
[1] = target: T1, human Kv4.3 (Homo sapiens, UniProt Q9UK17); experiment: Electropharyngeogram (EPG) analysis of dissected pharynxes of transgenic C. elegans strain UG1755; assay type: ex vivo, transgenic C. elegans expressing human Kv4.3
T1 construct: expressed in transfected cells; host or cells: transgenic C. elegans strain UG1755 (plasmid pGV8 integrated; expression in the pharynx)
T1 sequence (Q9UK17 1-655): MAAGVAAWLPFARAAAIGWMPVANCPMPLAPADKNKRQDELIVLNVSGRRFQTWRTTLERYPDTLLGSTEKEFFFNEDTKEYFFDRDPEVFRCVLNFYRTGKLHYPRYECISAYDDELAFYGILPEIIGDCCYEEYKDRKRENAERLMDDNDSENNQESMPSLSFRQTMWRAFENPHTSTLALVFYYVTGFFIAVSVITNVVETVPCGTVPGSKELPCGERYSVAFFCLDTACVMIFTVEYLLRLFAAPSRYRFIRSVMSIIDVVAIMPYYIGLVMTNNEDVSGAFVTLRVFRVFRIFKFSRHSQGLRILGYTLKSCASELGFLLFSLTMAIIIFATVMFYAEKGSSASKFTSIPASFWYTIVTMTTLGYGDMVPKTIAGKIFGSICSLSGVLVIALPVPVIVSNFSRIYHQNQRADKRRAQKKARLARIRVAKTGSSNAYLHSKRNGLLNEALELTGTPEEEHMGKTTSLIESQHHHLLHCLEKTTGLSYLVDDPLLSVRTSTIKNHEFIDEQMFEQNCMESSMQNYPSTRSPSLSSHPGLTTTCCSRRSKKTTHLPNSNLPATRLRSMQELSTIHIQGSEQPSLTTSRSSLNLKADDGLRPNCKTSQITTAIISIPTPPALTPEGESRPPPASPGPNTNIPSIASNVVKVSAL
Method: The method to describe the construction of a transgenic C. elegans strain expressing human Kv4.3 has been described in WO 03/097682. Briefly, the actual used strain UG1755 has been generated by microinjection into the gonad of a wild-type strain N2 with a mix of 5 ng/μl plasmid pGV8 (human Kv4.3), 20 ng/μl pDW2821 (GFP-marker) and 40 ng/μl genomic C. elegans DNA. Transgenic animals have been isolated and submitted to integration of the extra-chromosomal array into the genome of C. elegans. A line with 50% transmission of the functional expressed human Kv4.3 has been mutagenized with gamma irradiation using a Cobalt source. About 12000 F2 animals have been singled out and their progeny has been screened for the 100% transmission of the GFP marker. Lines with 100% transmission of GFP have been considered as potentially integrated. These lines have been further tested and out-crossed with N2 strain two-times. All lines obtained have been tested for viability, GFP and human Kv4.3 expression. At the end of a selection process, UG1755 was identified as most suitable C. elegans strain amenable to high throughput screening (HTS). […] Briefly, dissected pharynxes of UG1755 C. elegans animals have been prepared and Electropharyngeograms (EPGs) have been recorded using an Axopatch-1D amplifier (Axon instruments). […] The number of ultra short EPGs (10-20 ms) and normal EPGs (100-200 ms) has been analyzed and given as ratio in percentage. […] In addition standard qRT-PCR confirmed the presence of the human Kv4.3 transgene in UG1755 as well as human Kv4.3 protein has been detected with the human Kv4.3 antibody P 0358 in the pharynx of UG1755 animals.
Introducing the human Kv4.3 channel into the C. elegans pharynx influences the C. elegans action potential in a characteristic fashion. […] The pumping end-point can be technically translated into a high-throughput read-out by the use of a pro-fluorescent dye. […] After a defined incubation period, the change of fluorescence intensity in the intestine can be measured with a plate reader.

[2] = target: T2, human Kv4.3/KChIP2.2 potassium channel (Homo sapiens, UniProt Q9UK17); experiment: Whole cell patch clamp, CHO-K1 cells stably expressing Kv4.3/KChIP2.2; assay type: cell-based; conditions: CHO-K1, 1 μM
T2 construct: expressed in transfected cells
T2 sequence (Q9UK17 1-655): T1 sequence (Q9UK17 1-655)
T2 sequence (Q9NS61 1-270 partner): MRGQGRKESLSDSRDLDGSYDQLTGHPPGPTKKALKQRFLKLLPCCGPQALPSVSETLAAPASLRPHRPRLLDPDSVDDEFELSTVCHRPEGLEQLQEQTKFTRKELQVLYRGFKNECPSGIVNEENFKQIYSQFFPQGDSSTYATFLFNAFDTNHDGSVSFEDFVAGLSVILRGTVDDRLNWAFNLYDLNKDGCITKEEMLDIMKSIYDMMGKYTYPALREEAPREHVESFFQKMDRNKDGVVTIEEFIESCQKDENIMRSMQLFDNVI
Outline: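 Whole-cell patch clamp at 20-25 °C, bath pH 7.4 with 4 mM KCl, pipette 130 mM KCl/10 mM EGTA/5 mM Na2ATP. Compound at […] (≤0.1% DMSO), n=2; pulses from −100 mV to +40 mV for 300 ms at 0.1 Hz, P/n (n=5) leak-corrected, cells with 1–50 nA currents only.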

[3] = target: hERG potassium channel (Homo sapiens, UniProt Q12809); experiment: Whole cell patch clamp, HEK 293 T-REx HERG cells; conditions: 10 μM
[4] = read-out: Kv4.3 charge in %: remaining current measured after application of the compound and relative to the blank
[5] = read-out: Kv4.3 peak in %: remaining peak height measured after application of the compound and relative to the blank

hERG potassium channel, sequence (Q12809 whole entry): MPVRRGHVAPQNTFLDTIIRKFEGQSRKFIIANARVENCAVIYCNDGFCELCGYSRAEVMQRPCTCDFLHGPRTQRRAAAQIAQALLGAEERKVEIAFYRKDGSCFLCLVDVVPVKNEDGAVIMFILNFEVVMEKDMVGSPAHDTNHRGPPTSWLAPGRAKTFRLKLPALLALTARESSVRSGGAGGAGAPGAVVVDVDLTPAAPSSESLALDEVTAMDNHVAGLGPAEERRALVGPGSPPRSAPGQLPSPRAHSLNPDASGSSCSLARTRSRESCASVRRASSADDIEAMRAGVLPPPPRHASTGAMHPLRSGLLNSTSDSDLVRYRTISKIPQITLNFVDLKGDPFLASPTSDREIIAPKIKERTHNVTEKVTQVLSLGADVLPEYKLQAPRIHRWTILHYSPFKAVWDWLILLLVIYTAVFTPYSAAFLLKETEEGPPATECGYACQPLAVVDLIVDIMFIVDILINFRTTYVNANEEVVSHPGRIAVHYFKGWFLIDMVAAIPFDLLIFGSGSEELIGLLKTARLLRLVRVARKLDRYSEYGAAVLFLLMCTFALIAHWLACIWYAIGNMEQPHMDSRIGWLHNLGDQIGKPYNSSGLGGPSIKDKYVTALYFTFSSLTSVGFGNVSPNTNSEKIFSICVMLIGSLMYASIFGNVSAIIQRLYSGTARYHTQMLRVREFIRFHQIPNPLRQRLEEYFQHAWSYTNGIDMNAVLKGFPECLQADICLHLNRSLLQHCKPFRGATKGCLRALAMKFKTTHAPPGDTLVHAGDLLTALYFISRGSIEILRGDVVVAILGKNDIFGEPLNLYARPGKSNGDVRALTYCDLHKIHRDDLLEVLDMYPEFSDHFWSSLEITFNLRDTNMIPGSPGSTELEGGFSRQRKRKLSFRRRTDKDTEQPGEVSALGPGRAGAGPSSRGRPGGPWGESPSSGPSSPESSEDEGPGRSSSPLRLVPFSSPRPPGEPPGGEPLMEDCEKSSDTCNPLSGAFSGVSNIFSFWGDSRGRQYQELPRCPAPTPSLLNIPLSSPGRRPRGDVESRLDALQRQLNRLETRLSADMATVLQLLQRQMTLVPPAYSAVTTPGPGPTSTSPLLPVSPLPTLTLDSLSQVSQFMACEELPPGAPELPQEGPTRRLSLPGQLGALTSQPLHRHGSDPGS

| SMILES | ultra short action potentials of the human Kv4.3 transgenic C. elegans pharynx (result in words) [1] | After Application of Compound Ratio Ultra short to Normal EPGs in % ([1]; strain UG1755, 100 μM, n = 15, before application 83 ± 13) [%] | remaining activity at 1 µM [2, 4] [%] | remaining activity at 1 µM [2, 5] [%] | melting point [°C] | hERG (%) [3] [%] |
| --- | --- | --- | --- | --- | --- | --- |
| O=C(NCC1CCCCN1)c1cc(OCC(F)(F)F)ccc1OCC(F)(F)F (centres unmarked) [Flecainide] | restored to normal action potentials | 53 ± 24 |  |  |  |  |
| Nc1ccncc1 [4-aminopyridine] | restored to normal action potentials |  |  |  |  |  |
| COc1ccc(CNC(=O)c2oc3ccc(Cl)cc3c2C)c(OC)c1 [Compound 16, 5-choro-3-methyl-benzofuran-2-carboxylic acid 2,4-dimethoxy-benzylamide] |  |  | 24 | 88 | 139.8 to 140.4 | 47 |
| COc1ccc(CNC(=O)c2sc3ccc(Cl)cc3c2C)c(OC)c1 [Compound 21] |  |  | 50 | 92 | 146.8 to 147.8 | 100 |
| COc1ccc(CNC(=O)c2oc3ccccc3c2C)c(OC)c1 [Compound 43, 3-methyl-benzofuran-2-carboxylic acid 2,4-dimethoxy-benzylamide] |  |  | 70 | 94 | 110.7 to 111.5 | 61 |
| O=C(OCc1ccccc1)c1cc2cc(Cl)ccc2o1 [Compound 44, 5-chloro-benzofuran-2-carboxylic benzyl ester] |  |  | 45 | 80 | 76.9 to 77.3 | 28 |
| COc1ccc(CNC(=O)c2oc3ccccc3c2-n2cccc2)c(OC)c1 [Compound 18, 3-pyrrol-1-yl-benzofuran-2-carboxylic acid 2,4-dimethoxy-benzylamide] |  |  | 45 | 88 | 46 to 51.8 | 41 |
